Patent publication US20260174766A1, “COMBINATION OF MENIN INHIBITOR(S) AND IMMUNOPROTEASOME INHIBITOR(S) FOR TREATMENT OF LEUKEMIA” (Medizinische Hochschule Hannover, priority 2022, published 2026)

Tests used:
MLLr cell lines = test: Cell growth (cell counting after trypan blue exclusion) of MLLr cell lines; assay type: cell-based, human; settings: 250-500 nM; MOLM-13, MV-4;11, ML-2, KOPN-8; FIG. 1H
Experimental: MOLM-13, MONO-MAC-6, THP-1, KOPN-8, ML-2, MV-4;11, OCI-AML3, U-937, KASUMI-1, K-562, HL-60 and LAMA-84 cells were purchased from DSMZ (Braunschweig, Germany). Cas9-Blast cell lines are subclones of the respective cell lines and stably transduced with lentiCas9-Blast (Addgene plasmid #52962). Cells were cultured in RPMI 1640 medium (Thermo Fisher Scientific, Waltham, MA, USA) supplemented with 10-20% FBS (Thermo Fisher Scientific) in a humid atmosphere of 5% CO2 at 37° C. MV4;11 cells harboring Menin-inhibitor resistance mediating mutations of Menin were generated by CRISPR-Cas9 technology.
Cellular proliferation was assessed by cell counting after trypan blue exclusion. Apoptosis of cells was measured by flow cytometry using Annexin V/SYTOX® Blue staining following the manufacturer's instruction.

[1] = tested on: primary human leukemia cells harboring an MLL-AF4 fusion; test: MLL-AF4 patient-derived xenograft model with in vivo treatment and limiting dilution assay; design: species or system mouse; settings: ELDA; engraftment >1% hCD45+ in peripheral blood three months after transplantation; DMSO 1/247973
Source text: NOD.Cg-Prkdc^scid Il2rg^tm1Wjl Tg(CMV-IL3, CSF2, KITLG) 1Eav/MloySzJ (NSGS), NOD.Cg-Prkdc^scid Il2rg^tm1Wjl/SzJ (NSG) or NOD.Cg-Prkdc^scid Il2rg^tm1Wjl/RJ (NXG) were obtained from The Jackson Laboratory (Bar Harbor, ME, USA). 8-12-weeks old adult mice (male and female) were irradiated with 2 Gy (single dose) before transplantation. 1×10^5 MOLM-13, ML-2 or MV-4; 11 cells transduced with either of two PSMB8/LMP7 shRNAs or non-targeting control; with a pLEX vector containing the sequence of BASP1 or an empty vector; or treated ex vivo with the indicated inhibitors were injected intravenously via the tail vein. For patient derived xenograft experiments (PDX) of human MLLr leukemia we used an improved model for human HSC transplantation and analysis, that has been developed from immune-deficient mouse strains containing Kit mutations: NOD.Cg-^KitW-41J Prkdc^scid Il2rg^tm1Wjl/WaskJ (NSGW41) (Cosgun et al., 2014). […] Human myeloid engraftment (hCD45+ CD13+) was analyzed by flow cytometry. […]
FIGS. 4J-4K show number of engrafted mice per dilution (engraftment is considered if the percentage of hCD45+ cells is >1% in peripheral blood three months after transplantation) is shown and leukemic stem cell (LSC) frequency calculated using the ELDA (Extreme Limiting Dilution Assay) software (reference). […]

SMILES	reduction of cell growth in MLL-rearranged human AML cell lines (MLLr cell lines)	LSC frequency [1]
O=C(N[C@H](Cc1coc2ccccc12)B(O)O)[C@@H]1C[C@@H]2CC[C@H]1O2 [M3258, ((S)-2-(benzofuran-3-yl)-1-((1R,2R,4S)-7-oxabicyclo[2.2.1]heptane-2-carboxamido)ethyl)boronic acid]	recapitulated	–
Cc1c(CN2CCC(Nc3ncnc4sc(CC(F)(F)F)cc34)CC2)ccc2c1cc(C#N)n2Cc1cn[nH]c1 [MI-503, 4-Methyl-1-(1H-pyrazol-4-ylmethyl)-5-[[4-[[6-(2,2,2-trifluoroethyl)thieno[2,3-d]pyrimidin-4-yl]amino]-1-piperidinyl]methyl]-1H-indole-2-carbonitrile]	–	1/363914
